Key:
[1] = compound: NC(=O)CCCCC1CCSS1 [lipoamide]; assay: thermal stability z-score vs DMSO; higher = more thermally stabilized by treatment; settings: HeLa, lipoamide concentration 100 µM
Procedure: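 Cellular thermal proteome profiling in HeLa cells. Cells were treated with 100 µM lipoamide for 1 h, with or without 1 mM arsenate for a further 1 h, then heated to ten temperatures (37-66.3 °C), and soluble protein was quantified by TMT mass spectrometry relative to 0.1% DMSO controls. The thermal stability score (sum of log2 fold changes minus the abundance score) was transformed to a z-score; mean of n = 3 experiments.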

[2] = compound: O=[As]([O-])(O)O.[K+] [potassium arsenate]; assay: as above; settings: HeLa; arsenate concentration 1 mM
Procedure: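 Cellular thermal proteome profiling in HeLa cells treated with 1 mM arsenate for 1 h (DMSO pretreatment), heated to ten temperatures (37-66.3 °C). Soluble protein was quantified by TMT mass spectrometry relative to DMSO controls; the thermal stability score was transformed to a z-score; mean of n = 3 experiments.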

[3] = arsenate co-treatment: 1 mM arsenate 1 h
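Note: each temperature applied for 3 min, abundance score taken as mean log2 fold change at the two lowest temperatures, z-score obtained by mean subtraction and division by SD.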

Sequence of UniProt Q9Y6I4 (Q9Y6I4 whole entry): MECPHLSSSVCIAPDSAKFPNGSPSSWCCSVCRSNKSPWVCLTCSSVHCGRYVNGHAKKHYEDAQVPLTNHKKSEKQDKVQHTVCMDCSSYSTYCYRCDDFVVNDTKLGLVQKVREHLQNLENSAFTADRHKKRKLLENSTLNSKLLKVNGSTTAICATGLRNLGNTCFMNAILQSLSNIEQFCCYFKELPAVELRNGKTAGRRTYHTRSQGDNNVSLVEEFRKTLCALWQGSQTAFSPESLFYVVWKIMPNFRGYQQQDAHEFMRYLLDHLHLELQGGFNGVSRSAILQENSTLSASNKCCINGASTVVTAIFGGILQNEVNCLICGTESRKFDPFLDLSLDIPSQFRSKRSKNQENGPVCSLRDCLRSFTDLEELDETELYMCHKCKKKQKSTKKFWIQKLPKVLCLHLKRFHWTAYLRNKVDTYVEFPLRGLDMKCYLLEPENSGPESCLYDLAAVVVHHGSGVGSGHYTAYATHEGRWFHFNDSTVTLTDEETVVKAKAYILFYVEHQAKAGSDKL
Sequence of UniProt Q9P275 (Q9P275 whole entry): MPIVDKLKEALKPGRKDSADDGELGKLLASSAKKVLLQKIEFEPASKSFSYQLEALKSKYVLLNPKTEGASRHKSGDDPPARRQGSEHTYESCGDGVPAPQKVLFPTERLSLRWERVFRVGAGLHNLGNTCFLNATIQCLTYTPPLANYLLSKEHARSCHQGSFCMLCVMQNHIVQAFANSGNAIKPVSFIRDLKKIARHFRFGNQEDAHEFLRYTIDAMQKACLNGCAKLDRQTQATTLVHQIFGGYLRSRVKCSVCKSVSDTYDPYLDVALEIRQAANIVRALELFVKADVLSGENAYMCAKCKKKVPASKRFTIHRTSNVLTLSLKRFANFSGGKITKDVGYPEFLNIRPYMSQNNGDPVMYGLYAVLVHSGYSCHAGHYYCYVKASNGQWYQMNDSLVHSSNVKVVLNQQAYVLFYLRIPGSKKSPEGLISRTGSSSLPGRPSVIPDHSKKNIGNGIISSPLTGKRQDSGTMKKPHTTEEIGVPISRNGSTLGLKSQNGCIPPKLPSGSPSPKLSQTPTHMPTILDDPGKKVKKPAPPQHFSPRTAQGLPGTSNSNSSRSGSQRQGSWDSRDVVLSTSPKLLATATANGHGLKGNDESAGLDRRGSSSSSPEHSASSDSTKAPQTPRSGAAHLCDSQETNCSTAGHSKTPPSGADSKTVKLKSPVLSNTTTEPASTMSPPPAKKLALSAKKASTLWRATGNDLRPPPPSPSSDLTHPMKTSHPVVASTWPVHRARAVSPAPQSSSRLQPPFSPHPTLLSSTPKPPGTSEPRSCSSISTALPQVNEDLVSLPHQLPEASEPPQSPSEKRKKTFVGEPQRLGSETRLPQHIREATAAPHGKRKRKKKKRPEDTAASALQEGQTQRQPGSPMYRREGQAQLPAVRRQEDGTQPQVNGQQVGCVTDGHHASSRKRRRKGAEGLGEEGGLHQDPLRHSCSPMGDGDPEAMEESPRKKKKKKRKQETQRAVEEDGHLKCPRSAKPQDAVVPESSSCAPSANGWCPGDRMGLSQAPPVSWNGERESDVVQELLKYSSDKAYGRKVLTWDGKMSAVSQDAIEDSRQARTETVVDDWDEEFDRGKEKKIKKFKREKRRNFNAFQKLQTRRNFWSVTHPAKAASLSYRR
Sequence of UniProt O94763 (O94763 whole entry): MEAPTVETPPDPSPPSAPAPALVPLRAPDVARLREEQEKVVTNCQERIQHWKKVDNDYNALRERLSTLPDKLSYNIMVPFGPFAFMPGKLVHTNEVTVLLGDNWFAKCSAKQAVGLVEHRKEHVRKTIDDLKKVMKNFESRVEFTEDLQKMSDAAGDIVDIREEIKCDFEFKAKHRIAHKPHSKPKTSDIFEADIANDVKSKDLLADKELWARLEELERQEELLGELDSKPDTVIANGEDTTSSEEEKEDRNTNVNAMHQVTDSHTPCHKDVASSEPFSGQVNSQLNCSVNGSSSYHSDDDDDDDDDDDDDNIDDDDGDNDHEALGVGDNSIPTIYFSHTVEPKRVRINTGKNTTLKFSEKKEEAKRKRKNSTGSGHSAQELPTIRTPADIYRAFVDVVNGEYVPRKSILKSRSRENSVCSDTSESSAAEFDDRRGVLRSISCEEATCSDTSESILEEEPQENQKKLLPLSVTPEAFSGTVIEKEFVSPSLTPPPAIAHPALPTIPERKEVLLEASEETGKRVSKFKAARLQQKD
Sequence of UniProt Q9Y4E8 (Q9Y4E8 whole entry): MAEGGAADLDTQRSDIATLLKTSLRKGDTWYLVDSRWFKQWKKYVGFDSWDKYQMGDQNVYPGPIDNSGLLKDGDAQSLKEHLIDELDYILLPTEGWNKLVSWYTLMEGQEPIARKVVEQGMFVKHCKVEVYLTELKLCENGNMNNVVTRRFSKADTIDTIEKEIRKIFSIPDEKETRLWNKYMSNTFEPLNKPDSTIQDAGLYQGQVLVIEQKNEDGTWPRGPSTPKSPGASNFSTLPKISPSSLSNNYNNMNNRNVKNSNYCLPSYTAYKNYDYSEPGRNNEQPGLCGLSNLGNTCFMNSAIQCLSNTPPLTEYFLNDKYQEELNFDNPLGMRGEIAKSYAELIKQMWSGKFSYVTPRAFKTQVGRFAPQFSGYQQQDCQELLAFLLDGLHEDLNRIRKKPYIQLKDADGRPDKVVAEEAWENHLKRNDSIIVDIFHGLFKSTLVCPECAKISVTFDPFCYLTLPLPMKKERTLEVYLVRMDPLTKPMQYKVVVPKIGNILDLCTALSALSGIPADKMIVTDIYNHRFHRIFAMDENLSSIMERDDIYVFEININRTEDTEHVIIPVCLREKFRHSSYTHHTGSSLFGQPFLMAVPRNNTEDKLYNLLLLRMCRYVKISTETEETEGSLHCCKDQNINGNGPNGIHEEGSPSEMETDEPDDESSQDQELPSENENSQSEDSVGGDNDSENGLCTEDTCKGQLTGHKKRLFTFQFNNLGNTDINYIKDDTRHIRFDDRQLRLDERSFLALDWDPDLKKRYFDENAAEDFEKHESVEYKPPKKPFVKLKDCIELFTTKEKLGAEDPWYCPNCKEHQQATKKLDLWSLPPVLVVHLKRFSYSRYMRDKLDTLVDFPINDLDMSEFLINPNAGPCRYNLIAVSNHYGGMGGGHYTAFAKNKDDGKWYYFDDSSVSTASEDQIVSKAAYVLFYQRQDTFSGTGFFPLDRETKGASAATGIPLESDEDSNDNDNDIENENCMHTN
Sequence of UniProt Q9UBK9 (Q9UBK9 whole entry): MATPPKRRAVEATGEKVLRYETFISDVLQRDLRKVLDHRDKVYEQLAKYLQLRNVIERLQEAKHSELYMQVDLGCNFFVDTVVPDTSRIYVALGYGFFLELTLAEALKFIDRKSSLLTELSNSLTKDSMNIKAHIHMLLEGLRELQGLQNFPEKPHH
Sequence of UniProt Q14694 (Q14694 whole entry): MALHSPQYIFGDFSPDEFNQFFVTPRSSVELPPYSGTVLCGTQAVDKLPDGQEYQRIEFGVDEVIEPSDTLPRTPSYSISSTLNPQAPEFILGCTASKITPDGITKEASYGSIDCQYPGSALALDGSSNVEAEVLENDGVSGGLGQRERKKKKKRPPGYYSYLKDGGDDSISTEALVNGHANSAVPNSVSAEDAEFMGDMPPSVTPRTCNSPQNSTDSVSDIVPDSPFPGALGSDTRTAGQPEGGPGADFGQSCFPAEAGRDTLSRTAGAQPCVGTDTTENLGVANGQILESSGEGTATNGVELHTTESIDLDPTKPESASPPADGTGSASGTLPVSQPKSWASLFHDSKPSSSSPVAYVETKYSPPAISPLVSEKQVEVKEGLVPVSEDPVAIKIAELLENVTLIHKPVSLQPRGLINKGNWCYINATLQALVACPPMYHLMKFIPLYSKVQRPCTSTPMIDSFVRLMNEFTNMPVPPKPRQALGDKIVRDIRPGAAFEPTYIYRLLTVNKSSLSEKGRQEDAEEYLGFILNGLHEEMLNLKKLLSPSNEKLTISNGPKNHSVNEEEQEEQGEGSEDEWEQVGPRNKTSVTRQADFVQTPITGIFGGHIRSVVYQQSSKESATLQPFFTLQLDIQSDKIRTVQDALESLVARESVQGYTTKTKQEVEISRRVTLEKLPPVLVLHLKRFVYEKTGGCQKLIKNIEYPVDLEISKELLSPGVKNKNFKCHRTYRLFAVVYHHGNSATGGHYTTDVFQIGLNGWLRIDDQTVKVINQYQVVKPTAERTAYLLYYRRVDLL
Sequence of UniProt P07919 (P07919 whole entry): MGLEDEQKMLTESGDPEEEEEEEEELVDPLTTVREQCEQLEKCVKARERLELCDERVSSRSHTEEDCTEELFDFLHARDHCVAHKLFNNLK
Sequence of UniProt P31930 (P31930 whole entry): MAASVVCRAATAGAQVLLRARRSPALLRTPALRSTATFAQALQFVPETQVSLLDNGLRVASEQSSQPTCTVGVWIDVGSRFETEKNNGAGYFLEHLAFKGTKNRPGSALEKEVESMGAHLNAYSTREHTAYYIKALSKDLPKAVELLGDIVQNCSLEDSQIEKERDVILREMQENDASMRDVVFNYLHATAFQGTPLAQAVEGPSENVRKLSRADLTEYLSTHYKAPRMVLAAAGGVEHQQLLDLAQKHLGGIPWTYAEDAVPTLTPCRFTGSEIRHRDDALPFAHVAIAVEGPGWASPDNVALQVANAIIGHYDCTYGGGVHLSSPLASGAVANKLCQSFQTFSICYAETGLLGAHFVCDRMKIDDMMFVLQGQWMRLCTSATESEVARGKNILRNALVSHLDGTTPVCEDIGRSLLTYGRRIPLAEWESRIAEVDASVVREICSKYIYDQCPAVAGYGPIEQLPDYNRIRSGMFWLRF
Sequence of UniProt P47985 (P47985 whole entry): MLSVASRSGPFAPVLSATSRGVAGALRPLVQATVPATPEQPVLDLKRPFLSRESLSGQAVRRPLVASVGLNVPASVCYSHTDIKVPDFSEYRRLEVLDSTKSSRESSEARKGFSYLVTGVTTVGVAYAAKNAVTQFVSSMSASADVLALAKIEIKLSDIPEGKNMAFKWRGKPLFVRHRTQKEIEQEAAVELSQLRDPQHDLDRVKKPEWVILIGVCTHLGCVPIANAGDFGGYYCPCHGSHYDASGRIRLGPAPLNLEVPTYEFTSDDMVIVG

Target	thermal stability z-score [1, 3]	thermal stability z-score ([1]; arsenate co-treatment: none)	thermal stability z-score [2]
UNG (UniProt P13051)	-0.772	-1.08	-0.665
UNK (UniProt Q9C0B0)	0.117	0.0195	-0.364
UPF1 (UniProt Q92900)	0.222	-0.246	0.172
UPF2 (UniProt Q9HAU5)	-0.16	0.104	0.0278
UPF3B (UniProt Q9BZI7)	-0.0795	0.00475	0.667
UPP1 (UniProt Q16831)	-0.122	0.244	-0.16
UPRT (UniProt Q96BW1)	-0.0247	-0.292	0.289
UQCC1 (UniProt Q9NVA1)	0.493	0.855	1.5
UQCC2 (UniProt Q9BRT2)	0.0305	-0.239	0.139
UQCR10 (UniProt Q9UDW1)	-0.399	0.0606	0.553
UQCRB (UniProt P14927)	0.896	0.847	0.208
UQCRC1 (UniProt P31930)	1.43	0.508	-1.38
UQCRC2 (UniProt P22695)	0.268	-0.0661	-2.47
UQCRFS1 (UniProt P47985)	0.00262	0.279	-2.17
UQCRH (UniProt P07919)	1.35	1.45	0.58
UQCRQ (UniProt O14949)	0.971	0.797	1.28
URGCP (UniProt Q8TCY9)	0.532	0.322	1.12
URI1 (UniProt O94763)	-0.325	-0.193	0.52
UROD (UniProt P06132)	0.0739	0.0184	-0.0518
UROS (UniProt P10746)	-0.306	-0.445	-2.43
USE1 (UniProt Q9NZ43)	0.872	0.37	1.13
USF1 (UniProt P22415)	0.0459	-0.169	0.149
USMG5 (UniProt Q96IX5)	1.21	0.486	0.215
USO1 (UniProt O60763)	0.293	0.095	0.146

Target	thermal stability z-score [1, 3]	thermal stability z-score ([1]; arsenate co-treatment: none)	thermal stability z-score [2]
USP1 (UniProt O94782)	-0.779	-0.444	-0.221
USP3 (UniProt Q9Y6I4)	0.0204	0.0221	-2.27
USP4 (UniProt Q13107)	-0.209	-0.11	-0.141
USP5 (UniProt P45974)	0.0243	0.351	0.0981
USP6NL (UniProt Q92738)	0.194	-0.0598	0.0467
USP7 (UniProt Q93009)	0.299	0.123	-0.483
USP8 (UniProt P40818)	-0.401	-0.0464	0.561
USP9X (UniProt Q93008)	-0.133	-0.258	0.115
USP10 (UniProt Q14694)	0.103	0.045	-0.241
USP11 (UniProt P51784)	-0.0801	-0.162	0.143
USP13 (UniProt Q92995)	0.464	0.0604	-0.0408
USP14 (UniProt P54578)	0.406	-0.143	-0.0718
USP15 (UniProt Q9Y4E8)	0.00184	-0.0791	0.014
USP16 (UniProt Q9Y5T5)	-0.544	-0.649	0.229
USP19 (UniProt O94966)	0.774	-0.193	-0.0515
USP22 (UniProt Q9UPT9)	-0.374	0.131	0.237
USP24 (UniProt Q9UPU5)	-0.197	-0.413	-0.117
USP25 (UniProt Q9UHP3)	-0.18	-0.113	0.667
USP28 (UniProt Q96RU2)	-0.088	-0.175	-0.158
USP32 (UniProt Q8NFA0)	-0.102	-0.19	-0.0527
USP33 (UniProt Q8TEY7)	-0.155	-0.011	1.21
USP34 (UniProt Q70CQ2)	0.544	0.668	-0.384
USP36 (UniProt Q9P275)	0.216	-0.0229	-0.265
USP39 (UniProt Q53GS9)	-0.384	-0.174	-0.489

Target	thermal stability z-score [1, 3]	thermal stability z-score ([1]; arsenate co-treatment: none)	thermal stability z-score [2]
USP47 (UniProt Q96K76)	-0.439	-0.436	0.244
USP48 (UniProt Q86UV5)	-0.179	-0.137	-0.669
UTP3 (UniProt Q9NQZ2)	0.145	0.194	0.203
UTP4 (UniProt Q969X6)	0.167	0.0645	0.0306
UTP6 (UniProt Q9NYH9)	0.13	-0.00953	0.272
UTP14A (UniProt Q9BVJ6)	1.62	0.823	2.11
UTP15 (UniProt Q8TED0)	0.625	0.147	0.528
UTP18 (UniProt Q9Y5J1)	0.058	-0.244	0.516
UTP20 (UniProt O75691)	-0.113	-0.168	-0.134
UTRN (UniProt P46939)	0.452	-0.0132	-0.495
UVRAG (UniProt Q9P2Y5)	-0.0868	-0.247	-0.352
UXS1 (UniProt Q8NBZ7)	0.238	0.551	0.198
UXT (UniProt Q9UBK9)	0.497	0.378	0.352
UniProt E7ENQ6	-0.462	-0.272	0.151
UniProt E7EQ34|GOSR2	-0.785	-0.401	-0.878
UniProt E9PSI1	-0.0572	-0.622	-0.346
UniProt F5GYJ5	0.464	0.437	0.166
UniProt F5H5P2|BCKDHA	-0.168	-0.738	0.969
UniProt F8W031	-3.73	-2.58	0.325
UniProt G3V599	-0.297	-0.663	0.593
UniProt H0YIV9|GATC	-0.219	-0.277	-0.0937
VAC14 (UniProt Q08AM6)	-0.483	-0.0923	-0.61
VAMP4 (UniProt O75379)	1.45	1.92	0.236
VAMP7 (UniProt P51809)	-0.512	-0.444	-0.234

— the supplement of paper PMC12463676, “Small-molecule dissolution of stress granules by redox modulation benefits ALS models” (Nature Chemical Biology, 2025)
